What follows are molecules tested on HCV replicon Luc Neo ET (assay: HCV replication inhibition assay (replicon assay, luciferase reporter)). Conditions: Hepatitis C virus; Huh-7 cell lines containing HCV replicon Luc Neo ET; 72 hours with compound; 1 % DMSO; firefly luciferase reporter; concentration that produces 50 % of replication inhibition; read-out: EC50 Replicon LucneoET.
Type: cell-based
Method: The compounds according to the present invention were tested for their ability to inhibit HCV replication as follows:
Huh-7 cell lines containing HCV replicon Luc Neo ET (Reblikon) were maintained in DMEM supplemented with 10% SVF, 2 mM glutamine, and 1 X NEAA, 100 U / ml penicillin, and 100 µg / ml streptomycine. Cells were maintained in medium supplemented with 0.5 mg/ml G418, at 37°C and 5% CO2 in a humidified atmosphere. Cells were dissociated at sub confluence with trypsin EDTA 1X.
Replicon Luc Neo ET is bicistronic expression constructs (Lohmann et al, 1999, Science 285, 110-113). In brief, the structural genes of the HCV genome were replaced by heterologous sequences; the gene encoding the neomycin phosphotransferase (NPT) and the internal ribosome entry site (IRES) of the encephalomyocarditis virus (EMCV). The bicistronic construct is therefore composed of the following elements: HCV-IRES nucleotides 1-389 for Luc Neo ET, the NPT gene, the EMCV-IRES directing translation of downstream HCV sequences from NS2 or NS3 up to the authentic 3' end of the genome. HCV Polyprotein of Luc Neo ET replicon harbours the cell culture adaptive mutations E1202G, T1280I, K1846T. G418-resistance is only possible with cells containing high amounts of replicon.
Cells were dissociated the day before addition of compounds and seeded in 96 well-plates at a final concentration of 27 777.77 cells.ml^-1.cm^-2 in 90µl final volume of culture medium per well and were maintained at 37°C and 5% CO2 in a humidified atmosphere for 24 hours. 10 µl of compounds to be tested were added 24 hours after seeding. Final concentration of DMSO was 1 %. Cells were incubated in the presence of compounds for 72 hours after which expression of firefly luciferase reporter gene was quantified. Briefly, culture medium was removed and cells were lysed by addition of 100 µl of lysis buffer containing 125 mM Tris Phosphate ph 7.8, 10 mM EDTA, 5 mM DTT, 50 % glycerol and 5 % Triton. Plates were vortexed 10 min at 1300 rpm. 100µl of luciferin solution 1X were added to each well. Luciferin solution contained 40 mM Tris Phosphate ph 7.8, 0.2 mM EDTA, 67 mM DTT, 2.14 mM MgCl2, 5.4 mM MgSO4, 4.7 x 10^-4 M luciferin, 5.3 x 10^-4 M ATP and 2.7 x 10^-4 M Acetyl co enzyme A. Luminescence was immediately measured with Berthold Microlumat Plus LB 96V luminometer with an integration of 1 sec. Inhibition was calculated using the formula: % inhibition = 1-[(RLUsample-RLUbackground)/(RLUsignal-RLUbackground)].
The Table 1 below illustrates data on the biological activity of compounds of the present invention. Results are expressed as EC50 which is the concentration that produces 50 % of replication inhibition. Table 1. HCV replication inhibition assay

Q: For COc1ccc(CCN2C(=S)N(c3ccc(F)cc3)C(=O)C2CC(=O)Nc2ccc(N3CCCC3=O)cc2)cc1 (stereo not drawn) [Example 87, 2-[1-(4-fluorophenyl)-3-[2-(4-methoxyphenyl)ethyl]-5-oxo-2-sulfanylideneimidazolidin-4-yl]-N-[4-(2-oxopyrrolidin-1-yl)phenyl]acetamide], which EC50 is on record?
A: < 5000 nM

Q: How did the EC50 turn out when COc1ccc(CCN2C(=S)N(c3ccc(F)cc3)C(=O)C2CC(=O)Nc2ncc(OC)s2)cc1 (stereo not drawn) [Example 88, 2-[1-(4-Fluorophenyl)-3-[2-(4-methoxyphenyl)ethyl]-5-oxo-2-sulfanylideneimidazolidin-4-yl]-N-(5-methoxy-1,3-thiazol-2-yl)acetamide] was run?
A: < 500 nM

Q: With COc1ccc(CCN2C(=S)N(c3ccccc3)C(=O)/C2=C\C(=O)Nc2ccc(N(C)C)cc2)cc1 [Example 90, N-[4-(dimethylamino)phenyl]-2-[(4E)-3-[2-(4-methoxyphenyl)ethyl]-5-oxo-1-phenyl-2-sulfanylideneimidazolidin-4-ylidene]acetamide] as the molecule, how does the EC50 read?
A: < 500 nM

Q: Which EC50 does the source give for COc1ccc(CCN2C(=S)N(c3ccc(F)cc3)C(=O)C2CC(=O)Nc2ccc(O)cc2)cc1 (stereo not drawn) [Example 91, 2-[1-(4-fluorophenyl)-3-[2-(4-methoxyphenyl)ethyl]-5-oxo-2-sulfanylideneimidazolidin-4-yl]-N-(4-hydroxyphenyl)acetamide] here?
A: < 500 nM

Q: Which EC50 does the source give for COc1ccc(CCCN2C(=S)N(c3ccc(F)cc3)C(=O)C2CC(=O)Nc2ccc(OC)cn2)cc1 (stereo not drawn) [Example 92, 2-[1-(4-fluorophenyl)-3-[3-(4-methoxyphenyl)propyl]-5-oxo-2-sulfanylideneimidazolidin-4-yl]-N-(5-methoxypyridin-2-yl)acetamide] here?
A: < 500 nM

Q: With COc1ccc(CCCCN2C(=S)N(c3ccc(F)cc3)C(=O)C2CC(=O)Nc2ccc(OC)cn2)cc1 (stereo not drawn) [Example 93, 2-[1-(4-fluorophenyl)-3-[4-(4-methoxyphenyl)butyl]-5-oxo-2-sulfanylideneimidazolidin-4-yl]-N-(5-methoxypyridin-2-yl)acetamide] as the molecule, how does the EC50 read?
A: < 500 nM

Same assay, conditions: Huh-7 cell lines containing HCV replicon Luc Neo ET; 72 hours with compound; 1 % DMSO; firefly luciferase reporter; concentration that produces 50 % of replication inhibition

Q: For COc1ccc(/C=C\N2C(=S)N(c3ccc(F)cc3)C(=O)C2CC(=O)Nc2ccc(OC)cn2)cc1 (stereo not drawn) [Example 89, 2-[1-(4-Fluorophenyl)-3-[(Z)-2-(4-methoxyphenyl)ethenyl]-5-oxo-2-sulfanylideneimidazolidin-4-yl]-N-(5-methoxypyridin-2-yl)acetamide], which “EC50 Replicon LucneoET” value is on record?
A: Non Active

Same assay, conditions: Huh-7 cell lines containing HCV replicon Luc Neo ET; 72 hours with compound; 1 % DMSO; firefly luciferase reporter; concentration that produces 50 % of replication inhibition; read-out: EC50 Replicon LucneoET

Q: With COc1ccc(/C=C/N2C(=S)N(c3ccc(F)cc3)C(=O)C2CC(=O)Nc2ccc(OC)cn2)cc1 (stereo not drawn) [Example 95] as the molecule, how does the EC50 read?
A: < 500 nM

Q: For COc1ccc(CCN2C(=S)N(c3ccc(F)cc3)C(=O)C2CC(=O)Nc2c(F)cc(OC)cc2F)cc1 (stereo not drawn) [Example 97], which EC50 is on record?
A: < 500 nM

Q: How did the EC50 turn out when COc1ccc(NC(=O)CC2C(=O)N(c3ccc(F)cc3)C(=S)N2CCc2ccc(OCCNC(=O)OC(C)(C)C)cc2)nc1 (stereo not drawn) [Example 98] was run?
A: < 500 nM

Q: With “N-[4-(dimethylamino)phenyl]-2-[1-(4-fluorophenyl)-4-hydroxy-3-[2-(4-methoxyphenyl)ethyl]-5-oxo-2-sulfanylideneimidazolidin-4-yl]acetamide [Example 77]” as the molecule, how does the EC50 read?
A: < 500 nM

Q: With “N-[4-(dimethylamino)phenyl]-2-{4-hydroxy-3-[2-(4-methoxyphenyl)ethyl]-5-oxo-1-phenyl-2-sulfanylideneimidazolidin-4-yl}acetamide [Example 70]” as the molecule, how does the EC50 read?
A: < 500 nM

— patent publication EP2664616A1, “Hydantoin and thiohydantoin derivatives as antiviral drugs” (priority 2012, dated 2013)
